What was measured:
Xanthine oxidase (XO) [1] = molecular target: T1, Xanthine oxidase (XO) (Bos taurus, UniProt P80457); assay: uric acid formation, absorbance […] nm; type: biochemical
Xanthine oxidase (XO) [2] = molecular target: T1, Xanthine oxidase (XO); assay: uric acid formation, Morrison fit; type: biochemical

T1 sequence (P80457 2-1332): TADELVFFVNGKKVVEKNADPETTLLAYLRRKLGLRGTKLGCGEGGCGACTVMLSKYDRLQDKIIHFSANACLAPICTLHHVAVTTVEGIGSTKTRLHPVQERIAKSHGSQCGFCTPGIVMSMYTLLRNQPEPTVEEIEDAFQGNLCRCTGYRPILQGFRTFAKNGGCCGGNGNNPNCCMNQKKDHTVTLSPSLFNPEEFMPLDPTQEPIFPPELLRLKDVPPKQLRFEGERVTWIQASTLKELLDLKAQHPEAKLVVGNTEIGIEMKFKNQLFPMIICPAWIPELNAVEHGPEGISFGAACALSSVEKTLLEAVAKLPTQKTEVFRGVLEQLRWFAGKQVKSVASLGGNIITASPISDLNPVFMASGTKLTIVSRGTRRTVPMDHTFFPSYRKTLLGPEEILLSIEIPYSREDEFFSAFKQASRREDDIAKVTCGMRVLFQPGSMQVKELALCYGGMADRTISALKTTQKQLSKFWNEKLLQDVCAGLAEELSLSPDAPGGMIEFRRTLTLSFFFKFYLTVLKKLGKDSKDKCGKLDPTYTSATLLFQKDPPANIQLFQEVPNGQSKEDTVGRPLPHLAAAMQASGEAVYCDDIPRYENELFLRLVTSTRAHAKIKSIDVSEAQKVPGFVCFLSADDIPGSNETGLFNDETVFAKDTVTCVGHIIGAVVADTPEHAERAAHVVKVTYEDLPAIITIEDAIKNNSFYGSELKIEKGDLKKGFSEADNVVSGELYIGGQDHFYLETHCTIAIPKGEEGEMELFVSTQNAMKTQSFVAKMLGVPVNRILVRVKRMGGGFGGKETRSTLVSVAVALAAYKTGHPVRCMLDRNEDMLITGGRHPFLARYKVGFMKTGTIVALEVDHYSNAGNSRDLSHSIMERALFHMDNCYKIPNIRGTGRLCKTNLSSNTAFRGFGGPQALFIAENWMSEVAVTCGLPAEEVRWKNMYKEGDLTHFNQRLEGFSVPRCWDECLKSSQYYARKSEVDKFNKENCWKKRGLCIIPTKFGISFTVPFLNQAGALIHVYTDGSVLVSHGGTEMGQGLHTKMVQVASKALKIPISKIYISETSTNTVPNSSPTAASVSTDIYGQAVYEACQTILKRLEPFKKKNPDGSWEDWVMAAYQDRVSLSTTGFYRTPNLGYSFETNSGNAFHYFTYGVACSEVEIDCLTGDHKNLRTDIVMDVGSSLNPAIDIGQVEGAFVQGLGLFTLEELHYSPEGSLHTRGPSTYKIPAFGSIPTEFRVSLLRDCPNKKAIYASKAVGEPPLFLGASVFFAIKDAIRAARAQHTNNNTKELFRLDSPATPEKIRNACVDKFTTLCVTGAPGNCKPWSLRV

IC50 (Xanthine oxidase (XO) [1]) [µM]	Ki (Xanthine oxidase (XO) [2]) [µM]	SMILES
24.8 ± 0.072	2.22 ± 0.307	COc1cc(C)cc2c1C(=O)c1c(O)cccc1C2=O [1-O-methyl chrysophanol]
200.9 ± 0.04	38.7 ± 2.71	Cc1cc(O)c2c(c1)C(=O)c1cccc(O)c1C2=O [Chrysophanol]

— publication doi:10.1101/2023.03.04.531071v1 (biorxiv, 2023)
